According to patent publication US20240398805A1, “QUINAZOLINE DERIVED COMPOUNDS AS EGFR INHIBITORS AND THEIR USES THEREOF” (ACCUTAR BIOTECHNOLOGY INC., priority 2021, published 2024):

Columns and labels:
Assay type in all cases: cell-based
[1] = system: HCC827 cells; assay: Cell growth inhibition (CellTiter-Glo, 3 days) in HCC827; details: Homo sapiens, 72 h, 3 days after administration
Summary of the method: (§1)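 HCC827 cells in RPMI/10% FBS and A431 cells in DMEM/10% FBS were seeded at 5000 cells/well and left overnight. Compound was then added over a concentration range for 3 days of incubation, and viability was read by CellTiter-Glo luminescence.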

[2] = system: HCC827-SVD cells (human EGFR exon 20 insertion mutant D770_N771 insSVD); assay: Cell growth inhibition (CellTiter-Glo, 3 days) in HCC827-SVD; details: 72 h, 3 days after administration
Summary of the method: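 HCC827 cells carrying lentiviral codon-optimized EGFR D770_N771 insSVD, with endogenous EGFR knocked out by CRISPR (single clone), seeded at 5000 cells/well in RPMI with 10% FBS. Viability read by CellTiter-Glo luminescence.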

[3] = system: HCC827-ASV cells (human EGFR exon 20 insertion mutant A769_D770insASV); assay: Cell growth inhibition (CellTiter-Glo, 3 days) in HCC827-ASV; details: 72 h, 3 days after administration
Summary of the method: (§2)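 HCC827 cells lentivirally transduced with codon-optimized ASV or YVMA insertion mutants were seeded at 5000 cells/well in RPMI with 10% FBS and incubated overnight. Compound was added at various concentrations from a 10× stock in medium, with 3 days' incubation. Viability read by CellTiter-Glo luminescence.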

[4] = system: HCC827-YVMA cells (human ERBB2 exon20 insertion mutant A775_G776ins YVMA); assay: Cell growth inhibition (CellTiter-Glo, 3 days) in HCC827-YVMA; details: 72 h, 3 days after administration
Summary of the method: as §2

[5] = system: A431 cells; assay: Cell growth inhibition (CellTiter-Glo, 3 days) in A431; details: Homo sapiens, A-431, 72 h, 3 days after administration
Summary of the method: as §1

| SMILES | GI50 [1] | GI50 [2] | GI50 [3] | GI50 [4] | GI50 [5] |
| --- | --- | --- | --- | --- | --- |
| C=CC(=O)N1CCC(Nc2cc3c(Nc4ccc(Oc5ccnc(N6CC(S(C)(=O)=O)C6)c5)cc4F)ncnc3cc2OC)CC1 [Example 143, 1-(4-((4-((2-fluoro-4-((2-(3-(methylsulfonyl)azetidin-1-yl)pyridin-4-yl)oxy)phenyl)amino)-7-methoxyquinazolin-6-yl)amino)piperidin-1-yl)prop-2-en-1-one] | ≥ 1000 nM | 300 to 600 nM | 300 to 600 nM | 300 to 600 nM | ≥ 1000 nM |
| C=CC(=O)N1CCC(Nc2cc3c(Nc4ccc(Oc5ccnc(N6CC(C(N)=O)C6)c5)cc4F)ncnc3cc2OC)CC1 [Example 144, 1-(4-(4-((6-((1-acryloylpiperidin-4-yl)amino)-7-methoxyquinazolin-4-yl)amino)-3-fluorophenoxy)pyridin-2-yl)azetidine-3-carboxamide] | ≥ 1000 nM | 600 to 1000 nM | 600 to 1000 nM | ≥ 1000 nM | ≥ 1000 nM |
| C=CC(=O)N1CCC(Nc2cc3c(Nc4ccc(Oc5ccnc(N6CC(NC(C)=O)C6)c5)cc4F)ncnc3cc2OC)CC1 [Example 145, N-(1-(4-(4-((6-((1-acryloylpiperidin-4-yl)amino)-7-methoxyquinazolin-4-yl)amino)-3-fluorophenoxy)pyridin-2-yl)azetidin-3-yl)acetamide] | ≥ 1000 nM | ≥ 1000 nM | ≥ 1000 nM | ≥ 1000 nM | ≥ 1000 nM |
| C=CC(=O)N1CCC(Nc2cc3c(Nc4ccc(Oc5ccnc(N6CC(C(C)(C)O)C6)c5)cc4F)ncnc3cc2OC)CC1 [Example 146, 1-(4-((4-((2-fluoro-4-((2-(3-(2-hydroxypropan-2-yl)azetidin-1-yl)pyridin-4-yl)oxy)phenyl)amino)-7-methoxyquinazolin-6-yl)amino)piperidin-1-yl)prop-2-en-1-one] | 600 to 1000 nM | 60 to 100 nM | 60 to 100 nM | 100 to 300 nM | ≥ 1000 nM |
| C=CC(=O)N1CCC(Nc2cc3c(Nc4ccc(Oc5ccnc(N6CC(N(C)C)C6)c5)cc4F)ncnc3cc2OC)CC1 [Example 147, 1-(4-((4-((4-((2-(3-(dimethylamino)azetidin-1-yl)pyridin-4-yl)oxy)-2-fluorophenyl)amino)-7-methoxyquinazolin-6-yl)amino)piperidin-1-yl)prop-2-en-1-one] | 100 to 300 nM | 60 to 100 nM | 60 to 100 nM | 60 to 100 nM | ≥ 1000 nM |
| C=CC(=O)N1CCC(Nc2cc3c(Nc4ccc(Oc5ccnc(N6CC(OC(C)C)C6)c5)cc4F)ncnc3cc2OC)CC1 [Example 148, 1-(4-((4-((2-fluoro-4-((2-(3-isopropoxyazetidin-1-yl)pyridin-4-yl)oxy)phenyl)amino)-7-methoxyquinazolin-6-yl)amino)piperidin-1-yl)prop-2-en-1-one] | 100 to 300 nM | 30 to 60 nM | 30 to 60 nM | 30 to 60 nM | 300 to 600 nM |
| C=CC(=O)N1CCC(Nc2cc3c(Nc4ccc(Oc5ccnc(N6CCC(C)(O)C6)c5)cc4F)ncnc3cc2OC)CC1 (stereo not drawn) [Example 149, 1-(4-((4-((2-fluoro-4-((2-(3-hydroxy-3-methylpyrrolidin-1-yl)pyridin-4-yl)oxy)phenyl)amino)-7-methoxyquinazolin-6-yl)amino)piperidin-1-yl)prop-2-en-1-one] | 100 to 300 nM | 30 to 60 nM | 30 to 60 nM | 60 to 100 nM | 100 to 300 nM |
| C=CC(=O)N1CCC(Oc2cc3c(Nc4ccc(Oc5ccnc(N6C[C@@H](C)O[C@@H](C)C6)c5)cc4F)ncnc3cc2OC)CC1 [Example 152, 1-(4-((4-((4-((2-((2R,6S)-2,6-dimethylmorpholino)pyridin-4-yl)oxy)-2-fluorophenyl)amino)-7-methoxyquinazolin-6-yl)oxy)piperidin-1-yl)prop-2-en-1-one] | 600 to 1000 nM | 60 to 100 nM | < 30 nM | 60 to 100 nM | ≥ 1000 nM |
| C=CC(=O)N1CCC(Nc2cc3c(Nc4ccc(Oc5ccnc(N6CCC(C)(C)C6)c5)cc4F)ncnc3cc2OC)CC1 [Example 153, 1-(4-((4-((4-((2-(3,3-dimethylpyrrolidin-1-yl)pyridin-4-yl)oxy)-2-fluorophenyl)amino)-7-methoxyquinazolin-6-yl)amino)piperidin-1-yl)prop-2-en-1-one] | < 30 nM | < 30 nM | < 30 nM | 30 to 60 nM | 300 to 600 nM |
| C=CC(=O)N1CCC(Nc2cc3c(Nc4ccc(Oc5ccnc(N6C[C@@H](C)N[C@@H](C)C6)c5)cc4F)ncnc3cc2OC)CC1 [Example 154, 1-(4-((4-((4-((2-((3R,5S)-3,5-dimethylpiperazin-1-yl)pyridin-4-yl)oxy)-2-fluorophenyl)amino)-7-methoxyquinazolin-6-yl)amino)piperidin-1-yl)prop-2-en-1-one] | ≥ 1000 nM | 300 to 600 nM | 100 to 300 nM | 300 to 600 nM | ≥ 1000 nM |
| C=CC(=O)N1CCC(Nc2cc3c(Nc4ccc(Oc5ccnc(N6CCC(CO)(CO)C6)c5)cc4F)ncnc3cc2OC)CC1 [Example 155, 1-(4-((4-((4-((2-(3,3-bis(hydroxymethyl)pyrrolidin-1-yl)pyridin-4-yl)oxy)-2-fluorophenyl)amino)-7-methoxyquinazolin-6-yl)amino)piperidin-1-yl)prop-2-en-1-one] | ≥ 1000 nM | 100 to 300 nM | 100 to 300 nM | 100 to 300 nM | ≥ 1000 nM |
| C=CC(=O)N1CCC(Oc2cc3c(Nc4ccc(Oc5ccnc(N6C[C@@H](C)N(C)[C@@H](C)C6)c5)cc4F)ncnc3cc2OC)CC1 [Example 156, 1-(4-((4-((2-fluoro-4-((2-((3R,5S)-3,4,5-trimethylpiperazin-1-yl)pyridin-4-yl)oxy)phenyl)amino)-7-methoxyquinazolin-6-yl)oxy)piperidin-1-yl)prop-2-en-1-one] | ≥ 1000 nM | 100 to 300 nM | 100 to 300 nM | 100 to 300 nM | ≥ 1000 nM |
| C=CC(=O)N1CCC(Oc2cc3c(Nc4ccc(Oc5ccnc(N6CCN(C(C)C)CC6)c5)cc4F)ncnc3cc2OC)CC1 [Example 157, 1-(4-((4-((2-fluoro-4-((2-(4-isopropylpiperazin-1-yl)pyridin-4-yl)oxy)phenyl)amino)-7-methoxyquinazolin-6-yl)oxy)piperidin-1-yl)prop-2-en-1-one] | ≥ 1000 nM | ≥ 1000 nM | ≥ 1000 nM | ≥ 1000 nM | ≥ 1000 nM |
| C=CC(=O)N1CCC(Nc2cc3c(Nc4ccc(Oc5ccnc(N6C[C@H](C)C[C@H](C)C6)c5)cc4F)ncnc3cc2OC)CC1 [Example 158, 1-(4-((4-((4-((2-((3S,5R)-3,5-dimethylpiperidin-1-yl)pyridin-4-yl)oxy)-2-fluorophenyl)amino)-7-methoxyquinazolin-6-yl)amino)piperidin-1-yl)prop-2-en-1-one] | 600 to 1000 nM | 60 to 100 nM | 100 to 300 nM | 300 to 600 nM | ≥ 1000 nM |
| C=CC(=O)N1CCC(Nc2cc3c(Nc4ccc(Oc5ccnc(N6CCC(OC)C(C)(C)C6)c5)cc4F)ncnc3cc2OC)CC1 (stereo not drawn) [Example 159, 1-(4-((4-((2-fluoro-4-((2-(4-methoxy-3,3-dimethylpiperidin-1-yl)pyridin-4-yl)oxy)phenyl)amino)-7-methoxyquinazolin-6-yl)amino)piperidin-1-yl)prop-2-en-1-one] | 100 to 300 nM | 30 to 60 nM | 30 to 60 nM | 60 to 100 nM | 300 to 600 nM |
| C=CC(=O)N1CCC(Nc2cc3c(Nc4ccc(Oc5ccnc(N6CC7C(C6)C7(F)F)c5)cc4F)ncnc3cc2OC)CC1 (stereo not drawn) [Example 160, 1-(4-((4-((4-((2-(6,6-difluoro-3-azabicyclo[3.1.0]hexan-3-yl)pyridin-4-yl)oxy)-2-fluorophenyl)amino)-7-methoxyquinazolin-6-yl)amino)piperidin-1-yl)prop-2-en-1-one] | 30 to 60 nM | < 30 nM | < 30 nM | < 30 nM | 60 to 100 nM |
| C=CC(=O)N1CCC(Nc2cc3c(Nc4ccc(Oc5ccnc(N6CC(C(F)(F)F)C6)c5)cc4F)ncnc3cc2OC)CC1 [Example 161, 1-(4-((4-((2-fluoro-4-((2-(3-(trifluoromethyl)azetidin-1-yl)pyridin-4-yl)oxy)phenyl)amino)-7-methoxyquinazolin-6-yl)amino)piperidin-1-yl)prop-2-en-1-one] | 100 to 300 nM | < 30 nM | < 30 nM | < 30 nM | 300 to 600 nM |
| C=CC(=O)N1CCC(Oc2cc3c(Nc4ccc(Oc5ccnc(N6CC[C@@H](N(C)C)C6)c5)cc4F)ncnc3cc2OC)CC1 [Example 162, (R)-1-(4-((4-((4-((2-(3-(dimethylamino)pyrrolidin-1-yl)pyridin-4-yl)oxy)-2-fluorophenyl)amino)-7-methoxyquinazolin-6-yl)oxy)piperidin-1-yl)prop-2-en-1-one] | 100 to 300 nM | 100 to 300 nM | 100 to 300 nM | 100 to 300 nM | ≥ 1000 nM |
